Patent US6355799B1, “Substituted benzene compounds, process for their preparation, and herbicidal and defoliant compositions containing them” (ISK Americas Incorporated, priority 1997, dated 2002)

What was measured:
Type in all cases: in vivo
[1] = system: redroot pigweed (Amaranthus retroflexus, AMARE); assay: Pre-emerge test, greenhouse herbicide activity screening; conditions: rated 14 days after application, 0 = no damage, 100 = complete death
Summary of the method: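 Rating: 0–100 visual injury, 14 DAA. Application: acetone, 187 l/ha, 15–1000 g ai/ha, flat-fan track sprayer with nozzle 40–45 cm above soil or canopy. Post-emerge runs used 0.25% v/v surfactant on 2–3 leaf plants.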

[2] = system: barnyardgrass (Echinochloa crus-galli, ECHCG); assay: as above; conditions: rated 14 days after application, 0 = no damage, 100 = complete death
Summary of the method: (§1)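 Sandy loam pots; pre-emerge: sown 1 d pre-spray, surface-watered after, then bottom-watered. Post-emerge: sown 8–21 d before, 2–3 leaf stage, + 0.25% v/v NIS, bottom-watered. Acetone, 187 l/ha track spray, 15–1000 g ai/ha. 0–100 injury score, day 14.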

[3] = system: green foxtail (Setaria viridis, SETVI); assay: as above; conditions: rated 14 days after application, 0 = no damage, 100 = complete death
Summary of the method: as §1

[4] = system: ivyleaf morningglory (Ipomoea hederacea, IPOHE); assay: as above; conditions: rated 14 days after application, 0 = no damage, 100 = complete death
Summary of the method: as §1

[5] = system: johnsongrass (Sorghum halepense, SORHA); assay: as above; conditions: rated 14 days after application, 0 = no damage, 100 = complete death
Summary of the method: as §1

[6] = system: lambsquarters (Chenopodium album, CHEAL); assay: as above; conditions: rated 14 days after application, 0 = no damage, 100 = complete death
Summary of the method: as §1

[7] = system: large crabgrass (Digitaria sanguinalis, DIGSA); assay: as above; conditions: rated 14 days after application, 0 = no damage, 100 = complete death
Summary of the method: as §1

[8] = system: sicklepod (Cassia obtusifolia, CASOB); assay: as above; conditions: rated 14 days after application, 0 = no damage, 100 = complete death
Summary of the method: as §1

[9] = system: velvetleaf (Abutilon theophrasti, ABUTH); assay: as above; conditions: rated 14 days after application, 0 = no damage, 100 = complete death
Summary of the method: as §1

[10] = system: field corn (Zea mays L., var. Dekalb 535, CORN); assay: Pre-emerge test, crop safety; conditions: rated 14 days after application, 0 = no damage, 100 = complete death
Summary of the method: (§2)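 Fourteen days after spraying, crop and weed injury was graded visually from 0, no effect, to 100, every plant dead. Test substances were dissolved in acetone and applied at 15–1000 g ai/ha with a flat-fan nozzle. Application was either pre-emergence, one day after sowing, or post-emergence at the 2–3 leaf stage.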

[11] = system: upland rice (Oryza sp., var. Tebonnet, RICE); assay: Pre-emerge test, crop safety; conditions: rated 14 days after application, 0 = no damage, 100 = complete death
Summary of the method: as §2

[12] = system: barnyardgrass (Echinochloa crus-galli, ECHCG); assay: Post-emerge test, greenhouse herbicide activity screening; conditions: post-emerge, 14 days after application, rating scale 0-100
Summary of the method: (§3)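 Visual ratings on a 0-100 scale (0 no damage, 100 all plants dead) were taken at 14 days after treatment. Rates of 15-1000 g ai/ha in acetone, 187 l/ha, were sprayed onto soil one day after planting (pre-emerge) or onto 2-3 leaf plants with 0.25% v/v surfactant (post-emerge).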

[13] = system: common ragweed (Ambrosia artemisizfolia L., AMBEL); assay: as above; conditions: post-emerge, 14 days after application, rating scale 0-100
Summary of the method: as §3

[14] = system: green foxtail (Setaria viridis, SETVI); assay: as above; conditions: post-emerge, 14 days after application, rating scale 0-100
Summary of the method: as §3

[15] = system: ivyleaf morningglory (Ipomoea hederacea, IPOHE); assay: as above; conditions: post-emerge, 14 days after application, rating scale 0-100
Summary of the method: as §3

[16] = system: johnsongrass (Sorghum halepense, SORHA); assay: as above; conditions: post-emerge, 14 days after application, rating scale 0-100
Summary of the method: as §3

[17] = system: lambsquarters (Chenopodium album, CHEAL); assay: as above; conditions: post-emerge, 14 days after application, rating scale 0-100
Summary of the method: as §3

[18] = system: large crabgrass (Digitaria sanguinalis, DIGSA); assay: as above; conditions: post-emerge, 14 days after application, rating scale 0-100
Summary of the method: as §3

[19] = system: redroot pigweed (Amaranthus retroflexus, AMARE); assay: as above; conditions: post-emerge, 14 days after application, rating scale 0-100
Summary of the method: as §3

[20] = system: sicklepod (Cassia obtusifolia, CASOB); assay: as above; conditions: post-emerge, 14 days after application, rating scale 0-100
Summary of the method: as §3

[21] = system: velvetleaf (Abutilon theophrasti, ABUTH); assay: as above; conditions: post-emerge, 14 days after application, rating scale 0-100
Summary of the method: as §3

[22] = system: field corn (Zea mays L., var. Dekalb 535, CORN); assay: Post-emerge test, crop safety; conditions: post-emerge, 14 days after application, rating scale 0-100
Summary of the method: as §1

[23] = system: upland rice (Oryza sp., var. Tebonnet, RICE); assay: Post-emerge test, crop safety; conditions: post-emerge, 14 days after application, rating scale 0-100
Summary of the method: as §1

## COc1c(Cl)cc(F)c(-n2c(=O)cc(C(F)(F)F)n(C)c2=O)c1NC(=O)c1ccc2c(c1)OCO2 [2-73]
[1]; 63 g ai/ha
  Pre-emerge Herbicidal Activity, phytotoxicity rating (0-100), AMARE: 100
[1]; 250 g ai/ha
  Pre-emerge Herbicidal Activity, phytotoxicity rating (0-100), AMARE: 100
[2]; 63 g ai/ha
  Pre-emerge Herbicidal Activity, phytotoxicity rating (0-100), ECHCG: 90
[2]; 250 g ai/ha
  Pre-emerge Herbicidal Activity, phytotoxicity rating (0-100), ECHCG: 100
[3]; 63 g ai/ha
  Pre-emerge Herbicidal Activity, phytotoxicity rating (0-100), SETVI: 100
[3]; 250 g ai/ha
  Pre-emerge Herbicidal Activity, phytotoxicity rating (0-100), SETVI: 100
[4]; 63 g ai/ha
  Pre-emerge Herbicidal Activity, phytotoxicity rating (0-100), IPOHE: 90
[4]; 250 g ai/ha
  Pre-emerge Herbicidal Activity, phytotoxicity rating (0-100), IPOHE: 100
[5]; 63 g ai/ha
  Pre-emerge Herbicidal Activity, phytotoxicity rating (0-100), SORHA: 75
[5]; 250 g ai/ha
  Pre-emerge Herbicidal Activity, phytotoxicity rating (0-100), SORHA: 100
[6]; 63 g ai/ha
  Pre-emerge Herbicidal Activity, phytotoxicity rating (0-100), CHEAL: 100
[6]; 250 g ai/ha
  Pre-emerge Herbicidal Activity, phytotoxicity rating (0-100), CHEAL: 100
[7]; 63 g ai/ha
  Pre-emerge Herbicidal Activity, phytotoxicity rating (0-100), DIGSA: 100
[7]; 250 g ai/ha
  Pre-emerge Herbicidal Activity, phytotoxicity rating (0-100), DIGSA: 100
[8]; 63 g ai/ha
  Pre-emerge Herbicidal Activity, phytotoxicity rating (0-100), CASOB: 100
[8]; 250 g ai/ha
  Pre-emerge Herbicidal Activity, phytotoxicity rating (0-100), CASOB: 100
[9]; 63 g ai/ha
  Pre-emerge Herbicidal Activity, phytotoxicity rating (0-100), ABUTH: 100
[9]; 250 g ai/ha
  Pre-emerge Herbicidal Activity, phytotoxicity rating (0-100), ABUTH: 100
[10]; 63 g ai/ha
  Pre-emerge phytotoxicity rating (0-100), crop damage, CORN: 50
[10]; 250 g ai/ha
  Pre-emerge phytotoxicity rating (0-100), crop damage, CORN: 95
[11]; 63 g ai/ha
  Pre-emerge phytotoxicity rating (0-100), crop damage, RICE: 80
[11]; 250 g ai/ha
  Pre-emerge phytotoxicity rating (0-100), crop damage, RICE: 100
[12]; 63 g ai/ha
  phytotoxicity rating ECHCG: 30
[12]; 250 g ai/ha
  phytotoxicity rating ECHCG: 60
[13]; 63 g ai/ha
  phytotoxicity rating AMBEL: 100
[13]; 250 g ai/ha
  phytotoxicity rating AMBEL: 100
[14]; 63 g ai/ha
  phytotoxicity rating SETVI: 50
[14]; 250 g ai/ha
  phytotoxicity rating SETVI: 90
[15]; 63 g ai/ha
  phytotoxicity rating IPOHE: 100
[15]; 250 g ai/ha
  phytotoxicity rating IPOHE: 100
[16]; 63 g ai/ha
  phytotoxicity rating SORHA: 10
[16]; 250 g ai/ha
  phytotoxicity rating SORHA: 50
[17]; 63 g ai/ha
  phytotoxicity rating CHEAL: 70
[17]; 250 g ai/ha
  phytotoxicity rating CHEAL: 95
[18]; 63 g ai/ha
  phytotoxicity rating DIGSA: 30
[18]; 250 g ai/ha
  phytotoxicity rating DIGSA: 30
[19]; 63 g ai/ha
  phytotoxicity rating AMARE: 100
[19]; 250 g ai/ha
  phytotoxicity rating AMARE: 100
[20]; 63 g ai/ha
  phytotoxicity rating CASOB: 60
[20]; 250 g ai/ha
  phytotoxicity rating CASOB: 100
[21]; 63 g ai/ha
  phytotoxicity rating ABUTH: 100
[21]; 250 g ai/ha
  phytotoxicity rating ABUTH: 100
[22]; 63 g ai/ha
  phytotoxicity rating CORN: 25
[22]; 250 g ai/ha
  phytotoxicity rating CORN: 50
[23]; 63 g ai/ha
  phytotoxicity rating RICE: 20
[23]; 250 g ai/ha
  phytotoxicity rating RICE: 70
